The record followed here is PubChem BioAssay (NCI).

Test systems include RPMI-8226 leukemia; 786-0 renal; SK-MEL-2 melanoma; COLO 205 colon; SNB-75 CNS; SF-268 CNS; MALME-3M melanoma; OVCAR-3 ovarian; K-562 leukemia; MDA-MB-231 breast.
Common to all, as to experiment: NCI-60 cell line screen, 48 h

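Briefly, cells in 96-well plates were exposed to five compound concentrations for 48 h, and endpoints were estimated by linear interpolation. The concentration for 50% growth inhibition is given as GI50. TGI is the concentration that stops growth completely.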 Where only a bound is given, the exact number is not on record here.

Turning to `COc1ccccc1NC(=O)C1=C(C)NC(C)=C(C(=O)Nc2ccccc2OC)C1c1cccc2c1OCO2`, the TGI was > 100 µM in the experiment on RPMI-8226 leukemia; > 100 µM in the experiment on 786-0 renal; > 100 µM with SK-MEL-2 melanoma; > 100 µM in the experiment on COLO 205 colon; 50.9 µM with SNB-75 CNS; > 100 µM in the experiment with SF-268 CNS. The TGI with MALME-3M melanoma, in the experiment on OVCAR-3 ovarian and in the experiment on K-562 leukemia was > 100 µM each time.

`OCc1ccc(Oc2c3ccccc3nc3occc23)cc1`: the GI50 in the experiment with RPMI-8226 leukemia was 20.7 µM; with 786-0 renal it was 33.9 µM; with MDA-MB-231 breast it was 39.4 µM; with COLO 205 colon, 26.1 µM; in the experiment on SNB-75 CNS it was 31.7 µM; in the experiment on SF-268 CNS, 20.6 µM. Also, the values for the GI50 in the experiment on OVCAR-3 ovarian and in the experiment with K-562 leukemia were 22.1 µM and 30.9 µM, respectively. Also, the TGI in the experiment on RPMI-8226 leukemia is 65.5 µM; with 786-0 renal, > 100 µM; with MDA-MB-231 breast, > 100 µM; with COLO 205 colon, 54.8 µM; with SNB-75 CNS it was 89.8 µM; with SF-268 CNS it was 66.7 µM. Moreover, the TGI was 39.7 µM with OVCAR-3 ovarian and > 100 µM with K-562 leukemia.

For `O=CN1CCN(C=S)CC1`, the TGI in the experiment with RPMI-8226 leukemia, in the experiment on 786-0 renal, in the experiment on COLO 205 colon, in the experiment with SNB-75 CNS, in the experiment on SF-268 CNS and with MALME-3M melanoma was > 100 µM throughout. The TGI in the experiment on OVCAR-3 ovarian and in the experiment on K-562 leukemia was > 100 µM in each case.

Regarding `CNC(=O)OCc1[nH]ccc2c(C)c3nc4ccc(OC)cc4c3cc12`, the TGI in the experiment on RPMI-8226 leukemia is 10.6 µM; with 786-0 renal, 20.5 µM; in the experiment on SK-MEL-2 melanoma it was > 48 µM; in the experiment on COLO 205 colon it was > 28.1 µM; in the experiment on SNB-75 CNS, > 100 µM; with SF-268 CNS, > 100 µM. The TGI with MALME-3M melanoma is > 77.8 µM; in the experiment with OVCAR-3 ovarian it was > 67.8 µM; in the experiment on K-562 leukemia, > 22.5 µM.

For `COc1ccccc1NC(=O)CC(=O)NNCC(=O)Nc1nnc(-c2ccccc2)o1`, the TGI in the experiment on RPMI-8226 leukemia, in the experiment on 786-0 renal, with SK-MEL-2 melanoma, with COLO 205 colon, in the experiment on SNB-75 CNS and in the experiment on SF-268 CNS was > 100 µM each time. Also, the TGI in the experiment with OVCAR-3 ovarian and with K-562 leukemia was > 100 µM in each case.

`CCOC(=O)c1cnc2cc3cccccc3n2c1=O`: the TGI with RPMI-8226 leukemia, in the experiment on 786-0 renal, in the experiment with SK-MEL-2 melanoma, in the experiment on COLO 205 colon, in the experiment with SNB-75 CNS and in the experiment with SF-268 CNS was > 100 µM throughout. Moreover, the TGI with OVCAR-3 ovarian and with K-562 leukemia was > 100 µM in each case.

For `O=C(O)CCCNS(=O)(=O)c1ccc2ccccc2c1`, the TGI in the experiment with RPMI-8226 leukemia, in the experiment with 786-0 renal, in the experiment on SK-MEL-2 melanoma, in the experiment with COLO 205 colon, with SNB-75 CNS and in the experiment on SF-268 CNS was > 100 µM each time. Also, the TGI in the experiment on MALME-3M melanoma, with OVCAR-3 ovarian and with K-562 leukemia was > 100 µM each time.

Turning to `COC(=O)C1=Cc2c(cc(OC)c(OC)c2OC)[C@H](c2ccc(OC)c(OC)c2OC)C1C(=O)OC` (stereo partly specified), the TGI with RPMI-8226 leukemia, with 786-0 renal, in the experiment on COLO 205 colon, with SNB-75 CNS, with SF-268 CNS and in the experiment on MALME-3M melanoma was > 100 µM each time. Moreover, the TGI with OVCAR-3 ovarian and with K-562 leukemia was > 100 µM throughout.

`COc1ccc2c(c1)CCCC1C3=NCCC3(C)CSC21` (stereo unspecified): the TGI with RPMI-8226 leukemia, in the experiment on 786-0 renal, with COLO 205 colon, in the experiment with SNB-75 CNS, in the experiment on SF-268 CNS and with OVCAR-3 ovarian was > 100 µM each time. In addition, in the experiment on K-562 leukemia, the TGI is > 100 µM.

As to `CC1CC2(CCC1OCc1ccccc1)OCCO2` (stereo unspecified), the TGI in the experiment with RPMI-8226 leukemia, in the experiment on 786-0 renal, with SK-MEL-2 melanoma, in the experiment with COLO 205 colon, in the experiment with MALME-3M melanoma and with OVCAR-3 ovarian was > 100 µM throughout. The TGI with K-562 leukemia was > 100 µM.

Take `NC(N)=N/N=C/c1c(-c2ccc(Cl)c([N+](=O)[O-])c2)nc2ccccn12`: the GI50 in the experiment with 786-0 renal was 0.512 µM; with MDA-MB-231 breast, 1.69 µM; with SF-268 CNS, 1.35 µM; with OVCAR-3 ovarian, 1.59 µM. The TGI with 786-0 renal was determined as 1.9 µM; in the experiment on MDA-MB-231 breast, 3.29 µM; in the experiment on SF-268 CNS, 2.93 µM; with OVCAR-3 ovarian it was 3.11 µM.

Turning to `O=C(O)c1ccc(C2C3C=CC(C3)C2[N+](=O)[O-])cc1` (stereo unspecified), the TGI in the experiment on RPMI-8226 leukemia, in the experiment on 786-0 renal, in the experiment with SK-MEL-2 melanoma, with COLO 205 colon, in the experiment with SNB-75 CNS and in the experiment with SF-268 CNS was > 100 µM in each case. Besides, the TGI in the experiment on MALME-3M melanoma, with OVCAR-3 ovarian and in the experiment with K-562 leukemia was > 100 µM throughout.

With `CCOC(=O)[C@H]1Nc2ccc(Cl)cc2[C@H]2c3ccccc3O[C@H]21`, the TGI with RPMI-8226 leukemia, in the experiment with 786-0 renal, in the experiment on SK-MEL-2 melanoma, with COLO 205 colon, in the experiment with SNB-75 CNS and in the experiment on SF-268 CNS was > 100 µM throughout. Besides, the TGI in the experiment with OVCAR-3 ovarian and in the experiment with K-562 leukemia was > 100 µM each time.

`CCOC(=O)C(=O)Nc1ccc(Cl)c(C(F)(F)F)c1`: the TGI in the experiment on RPMI-8226 leukemia, in the experiment on 786-0 renal, in the experiment with SK-MEL-2 melanoma, in the experiment with COLO 205 colon, in the experiment with SNB-75 CNS and with SF-268 CNS was > 100 µM throughout. For the same molecule, the TGI with MALME-3M melanoma, in the experiment with OVCAR-3 ovarian and in the experiment with K-562 leukemia was > 100 µM in each case.

With `NC1=C(Cl)C(=O)c2ccccc2C1=O`, the TGI is 43.6 µM with RPMI-8226 leukemia; 20.2 µM with 786-0 renal; > 44 µM in the experiment with SK-MEL-2 melanoma; 30.8 µM in the experiment on COLO 205 colon; 27.3 µM in the experiment with SNB-75 CNS; 33.2 µM in the experiment with SF-268 CNS. For the same molecule, the figures for the TGI with MALME-3M melanoma, in the experiment on OVCAR-3 ovarian and with K-562 leukemia were 3.13 µM, 7.29 µM and 39 µM, respectively.

In the case of `NC(=O)c1c2c(cc3c(=O)c4ccccc4[nH]c13)CCCC2`, the TGI in the experiment on RPMI-8226 leukemia was > 78.7 µM; with 786-0 renal it was > 100 µM; in the experiment on SK-MEL-2 melanoma, > 100 µM; in the experiment on COLO 205 colon it was > 100 µM; with SNB-75 CNS, > 75 µM; in the experiment on SF-268 CNS, > 100 µM. In addition, the TGI in the experiment with MALME-3M melanoma is > 100 µM; in the experiment on OVCAR-3 ovarian, > 100 µM; in the experiment on K-562 leukemia it was > 97.3 µM.
